Experimental data published in ChEMBL document CHEMBL1137831, “Synthesis and antibacterial activity of some aryloxy/thioaryloxy oxazolidinone derivatives” (2004).
≈ marks a conversion by molar mass, not a printed value.

Experiments:
Enterococcus faecalis [1] = assay: Minimal inhibitory concentration against Enterococcus faecalis (VRE) ATCC 346-VRE; type: functional
[2] = tested on: Staphylococcus epidermidis; assay: Minimal inhibitory concentration against Staphylococcus epidermidis ATCC 12228; type: functional
Salmonella typhi = assay: Minimal inhibitory concentration against Salmonella typhi (MDR) ICH 098; type: functional, Salmonella enterica subsp. enterica serovar Typhi; conditions: Salmonella enterica
[3] = tested on: Staphylococcus epidermidis; assay: Minimal inhibitory concentration against methicillin resistant Staphylococcus epidermidis ATCC 23760; type: functional
Serratia marcescens = assay: Minimal inhibitory concentration against Serratia marcescens ATCC 12999; type: functional
Staphylococcus aureus [4] = assay: Minimal inhibitory concentration against methicillin resistant Staphylococcus aureus ST450; type: functional
Staphylococcus aureus [5] = assay: Minimal inhibitory concentration against Staphylococcus aureus ATCC 25923; type: functional
Pseudomonas aeruginosa = assay: Minimal inhibitory concentration against Pseudomonas aeruginosa ATCC 27853; type: functional
Klebsiella pneumoniae = assay: Minimal inhibitory concentration against Klebsiella pneumoniae ATCC 15380; type: functional
Enterococcus durans = assay: Minimal inhibitory concentration against Enterococcus durans ATCC 581; type: functional
[6] = tested on: Salmonella enterica subsp. enterica serovar Abony; assay: Minimal inhibitory concentration against Salmonella abony NCTC 6017; type: functional
Escherichia coli = assay: Minimal inhibitory concentration against Escherichia coli ATCC 25922; type: functional
Bacillus cereus = assay: Minimal inhibitory concentration against Bacillus cereus; type: functional
Enterococcus faecium = assay: Minimal inhibitory concentration against Enterococcus faecium 6A-VRE; type: functional
Enterococcus faecalis [7] = assay: Minimal inhibitory concentration against Enterococcus faecalis ATCC 29212; type: functional
Staphylococcus aureus [8] = assay: Minimal inhibitory concentration against methicillin resistant Staphylococcus aureus ST450; value ranges from 4-16 ug/mL; type: functional
Staphylococcus aureus [9] = assay: Minimal inhibitory concentration against Staphylococcus aureus ATCC 25923; value ranges from 4-8 ug/mL; type: functional
Staphylococcus aureus [10] = assay: Minimal inhibitory concentration against methicillin resistant Staphylococcus aureus ST450; value ranges from 4-8 ug/mL; type: functional
Staphylococcus aureus [11] = assay: Minimal inhibitory concentration against methicillin resistant Staphylococcus aureus ST450; value ranges from 2-4 ug/mL; type: functional
Staphylococcus aureus [12] = assay: Minimal inhibitory concentration against methicillin resistant Staphylococcus aureus ST450; value ranges from 1-2 ug/mL; type: functional

SMILES	MIC (Enterococcus faecalis [1]) [µg/mL]	MIC [2] [µg/mL]	MIC (Salmonella typhi) [µg/mL]	MIC [3] [µg/mL]	MIC (Serratia marcescens) [µg/mL]	MIC (Staphylococcus aureus [4]) [µg/mL]	MIC (Staphylococcus aureus [5]) [µg/mL]	MIC (Pseudomonas aeruginosa) [µg/mL]	MIC (Klebsiella pneumoniae) [µg/mL]	MIC (Enterococcus durans) [µg/mL]	MIC [6] [µg/mL]	MIC (Escherichia coli) [µg/mL]	MIC (Bacillus cereus) [µg/mL]	MIC (Enterococcus faecium) [µg/mL]	MIC (Enterococcus faecalis [7]) [µg/mL]	MIC (Staphylococcus aureus [8]) [µg/mL]	MIC (Staphylococcus aureus [9]) [µg/mL]	MIC (Staphylococcus aureus [10]) [µg/mL]	MIC (Staphylococcus aureus [11]) [µg/mL]	MIC (Staphylococcus aureus [12]) [µg/mL]
CC(=O)Nc1ccc(Sc2ccc(N3C[C@H](C/N=C(/S)NC4CC4)OC3=O)cc2F)cc1	> 16	8 (≈ 16.9 µM)	> 16	8 (≈ 16.9 µM)	> 16	16 (≈ 33.7 µM)	16 (≈ 33.7 µM)	> 16	> 16	8 (≈ 16.9 µM)	> 16	> 16	> 16	8 (≈ 16.9 µM)	8 (≈ 16.9 µM)	–	–	–	–	–
CC(=O)Nc1ccc(Oc2ccc(N3C[C@H](C/N=C(/S)NN)OC3=O)cc2F)cc1	8 (≈ 18.5 µM)	4 (≈ 9.23 µM)	> 16	8 (≈ 18.5 µM)	> 16	–	4 (≈ 9.23 µM)	> 16	> 16	4 (≈ 9.23 µM)	> 16	> 16	> 16	4 (≈ 9.23 µM)	4 (≈ 9.23 µM)	16 (≈ 36.9 µM)	–	–	–	–
CO/C(S)=N\C[C@H]1CN(c2ccc(Sc3ccc(NC(C)=O)cc3)c(F)c2)C(=O)O1	8 (≈ 17.8 µM)	4 (≈ 8.9 µM)	> 16	8 (≈ 17.8 µM)	> 16	–	–	> 16	> 16	4 (≈ 8.9 µM)	> 16	> 16	> 16	4 (≈ 8.9 µM)	4 (≈ 8.9 µM)	–	8 (≈ 17.8 µM)	8 (≈ 17.8 µM)	–	–
CC(=O)NC[C@H]1CN(c2ccc(Oc3ccc(NC(C)=O)cc3)c(F)c2)C(=O)O1	4 (≈ 9.97 µM)	2 (≈ 4.98 µM)	> 16	4 (≈ 9.97 µM)	> 16	–	2 (≈ 4.98 µM)	> 16	> 16	4 (≈ 9.97 µM)	> 16	> 16	> 16	4 (≈ 9.97 µM)	4 (≈ 9.97 µM)	–	–	–	4 (≈ 9.97 µM)	–
CC(=O)NC[C@H]1CN(c2ccc(Oc3ccccc3NC(C)=O)c(F)c2)C(=O)O1	> 16	> 16	> 16	> 16	> 16	> 16	> 16	> 16	> 16	> 16	> 16	> 16	> 16	> 16	> 16	–	–	–	–	–
CC(=O)Nc1ccc(Sc2ccc(N3C[C@H](C/N=C(/S)NN)OC3=O)cc2F)cc1	8 (≈ 17.8 µM)	4 (≈ 8.9 µM)	> 16	4 (≈ 8.9 µM)	> 16	–	4 (≈ 8.9 µM)	> 16	> 16	8 (≈ 17.8 µM)	> 16	> 16	> 16	16 (≈ 35.6 µM)	4 (≈ 8.9 µM)	–	–	8 (≈ 17.8 µM)	–	–
CC(=O)NC[C@H]1CN(c2ccc(Sc3ccc(NC(C)=O)cc3)c(F)c2)C(=O)O1	2 (≈ 4.79 µM)	1 (≈ 2.4 µM)	> 16	2 (≈ 4.79 µM)	> 16	–	1 (≈ 2.4 µM)	> 16	> 16	2 (≈ 4.79 µM)	> 16	> 16	> 16	2 (≈ 4.79 µM)	2 (≈ 4.79 µM)	–	–	–	–	2 (≈ 4.79 µM)
CO/C(S)=N\C[C@H]1CN(c2ccc(Oc3ccc(NC(C)=O)cc3)c(F)c2)C(=O)O1	8 (≈ 18.5 µM)	8 (≈ 18.5 µM)	> 16	16 (≈ 36.9 µM)	> 16	16 (≈ 36.9 µM)	8 (≈ 18.5 µM)	> 16	> 16	8 (≈ 18.5 µM)	> 16	> 16	> 16	16 (≈ 36.9 µM)	8 (≈ 18.5 µM)	–	–	–	–	–
CC(=O)Nc1ccc(Oc2ccc(N3C[C@H](C/N=C(\N)S)OC3=O)cc2F)cc1	4 (≈ 9.56 µM)	2 (≈ 4.78 µM)	> 16	4 (≈ 9.56 µM)	> 16	–	2 (≈ 4.78 µM)	> 16	> 16	2 (≈ 4.78 µM)	> 16	> 16	> 16	4 (≈ 9.56 µM)	4 (≈ 9.56 µM)	–	–	–	4 (≈ 9.56 µM)	–
CC(=O)NC[C@H]1CN(c2ccc(Oc3cccc(NC(C)=O)c3)c(F)c2)C(=O)O1	> 16	> 16	> 16	> 16	> 16	> 16	> 16	> 16	> 16	> 16	> 16	> 16	> 16	> 16	> 16	–	–	–	–	–
CC(=O)Nc1ccc(Sc2ccc(N3C[C@H](C/N=C(\N)S)OC3=O)cc2F)cc1	2 (≈ 4.6 µM)	1 (≈ 2.3 µM)	> 16	2 (≈ 4.6 µM)	> 16	–	1 (≈ 2.3 µM)	> 16	> 16	2 (≈ 4.6 µM)	> 16	> 16	> 16	2 (≈ 4.6 µM)	2 (≈ 4.6 µM)	–	–	–	–	2 (≈ 4.6 µM)
CC(=O)Nc1ccc(Oc2ccc(N3C[C@H](C/N=C(/S)N(C)C)OC3=O)cc2F)cc1	16 (≈ 35.8 µM)	16 (≈ 35.8 µM)	> 16	16 (≈ 35.8 µM)	> 16	16 (≈ 35.8 µM)	16 (≈ 35.8 µM)	> 16	> 16	16 (≈ 35.8 µM)	> 16	> 16	> 16	> 16	16 (≈ 35.8 µM)	–	–	–	–	–
CC(=O)Nc1ccc(Oc2ccc(N3C[C@H](C/N=C(/S)NC4CC4)OC3=O)cc2F)cc1	16 (≈ 34.9 µM)	16 (≈ 34.9 µM)	> 16	16 (≈ 34.9 µM)	> 16	16 (≈ 34.9 µM)	> 16	> 16	> 16	16 (≈ 34.9 µM)	> 16	> 16	> 16	> 16	8 (≈ 17.4 µM)	–	–	–	–	–
CC(=O)Nc1ccc(Sc2ccc(N3C[C@H](C/N=C(/S)N(C)C)OC3=O)cc2F)cc1	16 (≈ 34.6 µM)	16 (≈ 34.6 µM)	> 16	16 (≈ 34.6 µM)	> 16	> 16	16 (≈ 34.6 µM)	> 16	> 16	16 (≈ 34.6 µM)	> 16	> 16	> 16	> 16	8 (≈ 17.3 µM)	–	–	–	–	–
CC(=O)NC[C@H]1CN(c2ccc(N3CCOCC3)c(F)c2)C(=O)O1 [LINEZOLID]	–	2 (≈ 5.93 µM)	> 16	2 (≈ 5.93 µM)	> 16	–	–	> 16	> 16	2 (≈ 5.93 µM)	> 16	> 16	> 16	2 (≈ 5.93 µM)	–	–	–	–	–	–
